This test concerns BDF1 mice, P388/VCR leukemia ip, median survival T/C. Put plainly: NCI In Vivo Anticancer Drug Screen. Data for tumor model P388 Leukemia resistant to Vincristine; NSC 67574 (intraperitoneal) in B6D2F1 (BDF1) mice. As to conditions: endpoint: median survival time, higher = longer survival. As to the method:
The antitumor activity of compounds was measured in mice bearing transplantable tumors. Survival or tumor size were measured and the results are expressed as the measurement made in the treated group (T) divided by the measurement made in the vehicle treated control group (C). The tumor model used in this assay is P388 Leukemia resistant to Vincristine; NSC 67574 (intraperitoneal) in B6D2F1 (BDF1) mice

[1] abbreviates: dose: 5.0 mg/kg/injection, schedule: Q01DX010 (ip), vehicle: saline.
Where [2] appears, read: dose: 10.0 mg/kg/injection, schedule: Q01DX010 (ip), vehicle: saline.
The mark [3] stands for this setting: dose: 20.0 mg/kg/injection, schedule: Q01DX010 (ip), vehicle: saline.
Setting [4] is: dose: 40.0 mg/kg/injection, schedule: Q01DX010 (ip), vehicle: saline.
Where [5] appears, read: dose: 1000.0 micrograms/kg/injection, schedule: Q04DX003 (ip), vehicle: saline.
[6] abbreviates: dose: 2000.0 micrograms/kg/injection, schedule: Q04DX003 (ip), vehicle: saline.

“And” between values parts separate entries of the source, which are not always exact repeats. Identical values can stand only once. Toxic doses and inconclusive results are not listed.

Regarding `CC(=O)O[C@H]1C(=O)[C@@]2(C)[C@H]([C@H](OC(=O)c3ccccc3)[C@]3(O)C[C@H](OC(=O)[C@H](O)[C@@H](NC(=O)c4ccccc4)c4ccccc4)C(C)=C1C3(C)C)[C@]1(OC(C)=O)CO[C@@H]1C[C@@H]2O`, the T/C was 98 % of control (dose: 21.6 mg/kg/injection, schedule: Q04DX003 (ip), vehicle: Klucel (hydroxypropylcellulose) (HPC)); 93 % of control (dose: 36.0 mg/kg/injection, schedule: Q04DX003 (ip), vehicle: Klucel (hydroxypropylcellulose) (HPC)); 87 % of control (dose: 60.0 mg/kg/injection, schedule: Q04DX003 (ip), vehicle: Klucel (hydroxypropylcellulose) (HPC)).
In the case of `O=C1N[C@@H]([C@H]2CC[C@H](Cl)CN2)C(=O)N[C@H]1[C@H]1CC[C@H](Cl)CN1`, the T/C runs as follows: (dose: 2.4 mg/kg/injection, schedule: Q04DX003 (ip), vehicle: saline) 212 % of control; (dose: 4.0 mg/kg/injection, schedule: Q04DX003 (ip), vehicle: saline) 225 % of control.
`O=C(O)CCCc1ccc(N(CCCl)CCCl)cc1`: the T/C reads like this: (dose: 3.13 mg/kg/injection, schedule: Q01DX010 (ip), vehicle: saline) 92 % of control and 104 % of control; (dose: 6.25 mg/kg/injection, schedule: Q01DX010 (ip), vehicle: saline) 100 % of control; (dose: 12.5 mg/kg/injection, schedule: Q01DX010 (ip), vehicle: saline) 152 % of control.
Consider `CCn1cnc2c(=S)nc[nH]c21`, for which the T/C is, setting by setting: (dose: 15.6 mg/kg/injection, schedule: Q01DX010 (ip), vehicle: saline) 100 % of control and 109 % of control; (dose: 31.3 mg/kg/injection, schedule: Q01DX010 (ip), vehicle: saline) 100 % of control; (dose: 62.5 mg/kg/injection, schedule: Q01DX010 (ip), vehicle: saline) 100 % of control; (dose: 125.0 mg/kg/injection, schedule: Q01DX010 (ip), vehicle: saline) 95 % of control.
On to `N[C@@H](Cc1ccc(N(CCCl)CCCl)cc1)C(=O)O`, for which the T/C was 184 % of control (dose: 3.6 mg/kg/injection, schedule: Q01DX001 (ip), vehicle: saline); 181 % of control (dose: 6.0 mg/kg/injection, schedule: Q01DX001 (ip), vehicle: saline); 191 % of control (dose: 10.0 mg/kg/injection, schedule: Q01DX001 (ip), vehicle: saline); 161 % of control (dose: 16.7 mg/kg/injection, schedule: Q01DX001 (ip), vehicle: saline).
`N#[N+]c1cnc([O-])[nH]c1=O`: the T/C under setting [1] was 156 % of control.
For `Cn1c(N)nc2nc[nH]c2c1=S`, the T/C under setting [2] was 92 % of control and 100 % of control; the T/C under setting [3] is 96 % of control and 107 % of control; the T/C under setting [4] is 100 % of control and 123 % of control; the T/C (dose: 80.0 mg/kg/injection, schedule: Q01DX010 (ip), vehicle: saline) was 96 % of control.
With `S=P(N1CC1)(N1CC1)N1CC1`, the T/C (dose: 0.75 mg/kg/injection, schedule: Q01DX010 (ip), vehicle: saline) was 91 % of control and 95 % of control; the T/C (dose: 1.5 mg/kg/injection, schedule: Q01DX010 (ip), vehicle: saline) is 91 % of control; the T/C (dose: 3.0 mg/kg/injection, schedule: Q01DX010 (ip), vehicle: saline) is 95 % of control; the T/C (dose: 6.0 mg/kg/injection, schedule: Q01DX010 (ip), vehicle: saline) was 91 % of control and 104 % of control.
Consider `CS(=O)(=O)OCCN(CCOS(C)(=O)=O)c1ccc(N=O)cc1`, for which the T/C (dose: 0.5 mg/kg/injection, schedule: Q01DX010 (ip), vehicle: saline) was 150 % of control and the T/C (dose: 1.0 mg/kg/injection, schedule: Q01DX010 (ip), vehicle: saline) is 150 % of control.
`COc1ccc(CC2C(=O)NC(C)C(=O)N(C)C3Cc4ccc(cc4)Oc4cc(ccc4O)CC(C(=O)NC(C)C(=O)NC(C)C(=O)N2C)N(C)C3=O)cc1` (stereo not given): the T/C runs as follows: (dose: 4.32 mg/kg/injection, schedule: Q04DX003 (ip), vehicle: other) 108 % of control; (dose: 7.2 mg/kg/injection, schedule: Q04DX003 (ip), vehicle: other) 103 % of control.
In the case of `CC[C@H]1CN2CCc3cc(OC)c(OC)cc3[C@@H]2C[C@@H]1C[C@@H]1c2cc(OC)c(OC)cc2CCN1CCN(CCCl)CCCl`, the T/C runs as follows: (dose: 6.48 mg/kg/injection, schedule: Q04DX003 (ip), vehicle: saline with Tween-80) 107 % of control; (dose: 10.8 mg/kg/injection, schedule: Q04DX003 (ip), vehicle: saline with Tween-80) 111 % of control.
In the case of `O=C(Nc1ccc(C2=NCCN2)cc1)c1cccc(C(=O)Nc2ccc(C3=NCCN3)cc2)c1`, the T/C (dose: 8.0 mg/kg/injection, schedule: Q01DX010 (ip), vehicle: saline) is 118 % of control; the T/C (dose: 16.0 mg/kg/injection, schedule: Q01DX010 (ip), vehicle: saline) is 111 % of control; the T/C (dose: 64.0 mg/kg/injection, schedule: Q01DX010 (ip), vehicle: saline) was 158 % of control.
In the case of `COc1cc([C@@H]2c3cc4c(cc3[C@@H](OC3OC5COC(C)OC5C(O)C3O)[C@H]3COC(=O)[C@H]23)OCO4)cc(OC)c1O` (stereo not given in full), the T/C (dose: 7.48 mg/kg/injection, schedule: Q04DX003 (ip), vehicle: other) is 274 % of control; the T/C (dose: 12.5 mg/kg/injection, schedule: Q04DX003 (ip), vehicle: other) was 250 % of control; the T/C (dose: 20.8 mg/kg/injection, schedule: Q04DX003 (ip), vehicle: other) is 307 % of control; the T/C (dose: 34.6 mg/kg/injection, schedule: Q04DX003 (ip), vehicle: other) was 340 % of control.
`Nc1nc(=S)c2[nH]cnc2[nH]1`: the T/C (dose: 1.25 mg/kg/injection, schedule: Q01DX010 (ip), vehicle: other) is 165 % of control; the T/C (dose: 5.0 mg/kg/injection, schedule: Q01DX010 (ip), vehicle: other) is 103 % of control and 107 % of control.
Take `O=c1cnn(C2OC(CO)C(O)C2O)c(=O)[nH]1` (stereo not given): the T/C (dose: 100.0 mg/kg/injection, schedule: Q01DX010 (ip), vehicle: saline) was 107 % of control; the T/C (dose: 200.0 mg/kg/injection, schedule: Q01DX010 (ip), vehicle: saline) was 114 % of control; the T/C (dose: 400.0 mg/kg/injection, schedule: Q01DX010 (ip), vehicle: saline) is 115 % of control and 121 % of control; the T/C (dose: 800.0 mg/kg/injection, schedule: Q01DX010 (ip), vehicle: saline) was 123 % of control; the T/C (dose: 1600.0 mg/kg/injection, schedule: Q01DX010 (ip), vehicle: saline) was 88 % of control.
On to `O=C(Nc1ccc(C(=O)Nc2ccc(C3=NCCCN3)cc2)cc1)Nc1ccc(C2=NCCCN2)cc1`, for which the T/C is 116 % of control and 123 % of control (dose: 1.88 mg/kg/injection, schedule: Q01DX010 (ip), vehicle: saline); 116 % of control and 123 % of control (dose: 3.75 mg/kg/injection, schedule: Q01DX010 (ip), vehicle: saline); 123 % of control (dose: 15.0 mg/kg/injection, schedule: Q01DX010 (ip), vehicle: saline).
`CN(C)c1ccc(/C=C/c2ccnc3ccccc23)cc1`: the T/C is 92 % of control and 104 % of control under setting [1]; 88 % of control and 96 % of control under setting [2]; 104 % of control under setting [3]; 96 % of control and 100 % of control under setting [4].
Consider `CCC1(O)CC2CN(CCc3c([nH]c4ccccc34)C(C(=O)OC)(c3cc4c(cc3OC)N(C)C3C(O)(C(=O)NCCO)C(O)C5(CC)C=CCN6CCC43C65)C2)C1` (stereo not given), for which the T/C runs as follows: (dose: 500.0 micrograms/kg/injection, schedule: Q04DX003 (ip), vehicle: saline) 107 % of control; under setting [5], 106 % of control; under setting [6], 105 % of control; (dose: 4000.0 micrograms/kg/injection, schedule: Q04DX003 (ip), vehicle: saline) 108 % of control.
In the case of `O=C(Nc1ccc(C2=NCCN2)cc1)c1ccc(NC(=O)c2ccc(C3=NCCN3)cc2)cc1`, the T/C is, setting by setting: (dose: 18.0 mg/kg/injection, schedule: Q01DX010 (ip), vehicle: saline) 104 % of control; (dose: 27.0 mg/kg/injection, schedule: Q01DX010 (ip), vehicle: saline) 108 % of control; under setting [4], 113 % of control; (dose: 60.0 mg/kg/injection, schedule: Q01DX010 (ip), vehicle: saline) 113 % of control.
With `CCC1(O)CC2CN(CCc3c([nH]c4ccccc34)C(C(=O)OC)(c3cc4c(cc3OC)N(C)C3C(O)(C(=O)NCCSSCCNC(=O)C5(O)C(O)C6(CC)C=CCN7CCC8(c9cc(C%10(C(=O)OC)CC%11CN(CCc%12c%10[nH]c%10ccccc%12%10)CC(O)(CC)C%11)c(OC)cc9N(C)C58)C76)C(O)C5(CC)C=CCN6CCC43C65)C2)C1` (stereo not given), the T/C is, setting by setting: (dose: 250.0 micrograms/kg/injection, schedule: Q04DX003 (ip), vehicle: saline) 117 % of control; (dose: 648.0 micrograms/kg/injection, schedule: Q04DX003 (ip), vehicle: saline) 154 % of control; under setting [5], 161 % of control; under setting [6], 164 % of control; (dose: 3000.0 micrograms/kg/injection, schedule: Q04DX003 (ip), vehicle: saline) 90 % of control.

(Values after PubChem BioAssay AID336 (DTP/NCI, 2004).)
